# In article PMC11556372 (Journal of medicinal chemistry, 2023):
# Where two headings read alike, the source gives them in different places.
# Legend:
# [1] = cited from earlier work
# [2] = test system: SARS-CoV-2-Nluc; test: in vitro; conditions: human
# [3] = test system: SARS-CoV-2 WA1; test: SARS-CoV-2 nucleoprotein ELISA in A549-hACE2-TMPRSS2 cells, WA1; format: cell-based
# [4] = read-out: mean Cmax of plasma 1; AGM, 1 iv 10 mg/kg day 1 dose; cited from earlier work
# [5] = cited from earlier work; remark: listed apart in the source
# [6] = test system: SARS-CoV-2; conditions: cited from earlier work
# [7] = target: T1, adenosine deaminase (Homo sapiens, UniProt P00813); test: Metabolism by adenosine deaminase in vitro
# T1 sequence (P00813 1-363): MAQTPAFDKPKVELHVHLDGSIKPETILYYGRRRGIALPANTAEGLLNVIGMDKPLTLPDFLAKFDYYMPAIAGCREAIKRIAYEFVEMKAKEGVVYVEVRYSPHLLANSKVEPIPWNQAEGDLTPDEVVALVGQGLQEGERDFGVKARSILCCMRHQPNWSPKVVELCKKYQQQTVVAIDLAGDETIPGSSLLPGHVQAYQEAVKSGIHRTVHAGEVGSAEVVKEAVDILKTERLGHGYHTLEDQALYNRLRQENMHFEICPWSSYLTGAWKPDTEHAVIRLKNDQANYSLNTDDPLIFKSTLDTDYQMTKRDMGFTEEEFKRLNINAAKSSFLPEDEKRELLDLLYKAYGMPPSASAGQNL
# [8] = in vivo; conditions: nonhuman primates, iv
# [9] = test system: SARS-CoV-2; conditions: read-out: in vitro SARS-CoV-2 antiviral EC50; Vero E6 cells and primary lung cultures; cited from earlier work
# [10] = in vitro; conditions: human, microsomes
# [11] = format: in vitro ADME; conditions: 2 μM, pH 7.4
# [12] = format: in vitro ADME; conditions: 2 μM, pH 7.4; remark: listed apart in the source
# [13] = in vivo
# [14] = test system: Caco-2 cells; test: in vitro; format: in vitro ADME; conditions: Caco-2
# [15] = in vitro; format: in vitro ADME; conditions: human, Caco-2, Caco-2 efflux ratio
# [16] = format: in vitro ADME; conditions: 2 μM, pH 7.4; remark: listed apart in the source
# [17] = test system: SARS-CoV-2; test: AGM SARS-CoV-2 antiviral efficacy study
# [18] = test system: three human carboxyesterases; test: in vitro; format: in vitro ADME; conditions: pH 7.4
# [19] = format: in vitro ADME; conditions: 2 μM, pH 7.4; remark: listed apart in the source
# [20] = Thermodynamic solubility in pH 7 buffered solution; format: physicochemical
# [21] = In vivo pharmacokinetics, rat; conditions: po, 6 mg/kg
# [22] = format: physicochemical; conditions: 24 h, 50 μg/mL
# [23] = format: in vitro ADME; conditions: 2 μM, pH 7.4; remark: listed apart in the source
# [24] = format: in vitro ADME; conditions: 2 μM, pH 7.4; remark: listed apart in the source
# [25] = format: in vitro ADME; conditions: 2 μM, pH 7.4; remark: listed apart in the source
# [26] = format: in vitro ADME; conditions: 2 μM, pH 7.4; remark: listed apart in the source
# [27] = Severe acute respiratory syndrome coronavirus 2, A549-hACE2-TMPRSS2, read-out: EC50 ± SD, WA1 (n = 2), reference run above Omicron BA.2.12.1, BA.4, BA.5
compound,measurement,setting,value
[N-]=[N+]=N[C@]1(CO)O[C@@H](n2ccc(N)nc2=O)[C@H](O)[C@@H]1O [R1479],estimated oral bioavailability,"[1]; human, in vivo, po",6–18%
"CCC(CC)COC(=O)[C@H](C)N[P@](=O)(OC[C@H]1O[C@@](C#N)(c2ccc3c(N)ncnn23)[C@H](O)[C@@H]1O)Oc1ccccc1 [compound 1, Remdesivir]",selectivity ratio,[2],≥ 300
same,EC50,[3]; [27],160 ± 0.6 nM
same,fold change ± SD from WA1,"[3]; WA1 (n = 2), reference run above Omicron BA.2",1.0
same,fold change ± SD from WA1,"[3]; WA1 (n = 2), reference run above Omicron BA.2.12.1, BA.4, BA.5",1.0
same,fold change ± SD from WA1,"[3]; WA1 (n = 2), reference run above Omicron BA.2.75",1.0
same,fold change ± SD from WA1,"[3]; WA1 (n = 2), reference run above Omicron BA.4.6, BF.5",1.0
same,fold change ± SD from WA1,"[3]; WA1 (n = 2), reference run above Omicron XBB, BQ.1.1",1.0
same,fold change ± SD from WA1,"[3]; WA1 (n = 3), reference run above Delta",1.0
same,fold change ± SD from WA1,"[3]; WA1 (n = 7), reference run above Omicron BA.1",1.0
same,AUC0–24h of 1,[1]; 100 mg maintenance dose in humans,2.6 µM·h
same,Cmax,[4],12.6 µM
same,half-life,[5]; NHPs,0.4 to 0.8 h
same,oral bioavailability of the intact prodrug,[5]; nonhuman primates,< 1%
same,reduction in hospitalizations,"[6]; high-risk nonhospitalized patients (PINETREE), 3-day iv",87%
same,effectiveness in reducing hospitalization,"[6]; outpatient high-risk patients, 5-day oral Paxlovid, 3-day iv 1",≥ 87%
same,shortening of hospitalization duration,"[6]; patients hospitalized with COVID-19 (ACTT-1), iv",5 days
"N#C[C@@]1(c2ccc3c(N)ncnn23)O[C@H](CO)[C@@H](O)[C@H]1O [compound 2, GS-441524]",metabolism by adenosine deaminase,[7],weak substrates or inhibitors
same,half-life,[8],2.6 to 2.7 h
same,EC50,[3]; [27],7360 ± 3460 nM
same,EC50,[9],1000 to 2000 nM
same,half-life,[10],> 8 h
"CC(C)C(=O)OC[C@H]1O[C@@](C#N)(c2ccc3c(N)ncnn23)[C@H](O)[C@@H]1O [compound 3, ((2R,3S,4R,5R)-5-(4-Aminopyrrolo[2,1-f][1,2,4]triazin-7-yl)-5-cyano-3,4-dihydroxytetrahydrofuran-2-yl)methyl Isobutyrate]","GI S9 stability, rat",[11],<2/<2/<2/<2 min
same,"GI S9 stability, cynomolgus monkey",[12],<2/<2/<2/<2 min
same,metabolism by adenosine deaminase,[7],weak substrates or inhibitors
same,simulated human Cave,[13],≈ 4.6 μM
same,fold improved forward permeability over parent 2,[14],~ 10 fold
same,efflux ratio at 2 h,[15],< 3
same,"GI S9 stability, dog",[16],<2/<2/<2/<2 min
same,EC50,[3]; [27],1570 ± 210 nM
same,EC50,"[3]; Severe acute respiratory syndrome coronavirus 2, A549-hACE2-TMPRSS2, read-out: EC50 ± SD, WA1 (n = 2), reference run above Omicron BA.4.6, BF.5",3960 ± 290 nM
same,SARS-CoV-2 infectious and RNA loads in throat swabs,"[17]; 1, 2, and 6 dpi, both dose groups",significant reductions
same,infectious viral loads in the BALF,"[17]; 60 or 120 mg/kg oral once daily, throughout infection",statistically significant decreases
same,genomic RNA loads in BALF,"[17]; 60 or 120 mg/kg, exception 60 mg/kg at day 1 post-infection",significantly reduced at nearly all study time points assessed
same,infectious virus in throat and nasal swabs,"[17]; after day 4 post-infection, either dose group",no detectable infectious virus
same,viral RNA levels in terminal respiratory tissues,"[17]; study day 6, both doses",significant reductions of viral RNA levels in 5 out of the 6 respiratory tissues evaluated
same,half-life at 2 μM,[18],< 4.3 min
same,"GI S9 stability, human",[19],<2/<2/<2/<2 min
same,fold improved pH 7 solubility over 2,[20],> 10 fold
same,fold improved pH 7 solubility over 6,[20],> 100 fold
same,AUC0–24 of 3,[21],BLQ
same,"solution stability, pH 2",[22],≥94%
same,"solution stability, pH 7",[22],≥96%
"CC(=O)OC[C@H]1O[C@@](C#N)(c2ccc3c(N)ncnn23)[C@H](O)[C@@H]1O [compound 5, ((2R,3S,4R,5R)-5-(4-Aminopyrrolo[2,1-f][1,2,4]triazin-7-yl)-5-cyano-3,4-dihydroxytetrahydrofuran-2-yl)methyl Acetate]","GI S9 stability, rat",[11],< 2 min
CC(C)C(=O)OC[C@H]1O[C@@](C#N)(c2ccc3c(N)ncnn23)[C@H](OC(=O)C(C)C)[C@@H]1OC(=O)C(C)C [compound 6],"GI S9 stability, rat",[11],<2/<2/<2/<2 min
same,"GI S9 stability, cynomolgus monkey",[12],<2/<2/<2/<2 min
same,"GI S9 stability, dog",[16],<2/<2/<2/<2 min
same,"GI S9 stability, human",[19],<2/<2/<2/<2 min
same,"solution stability, pH 2",[22],≥96%
same,"solution stability, pH 7",[22],≥98%
CC(=O)OC[C@H]1O[C@@](C#N)(c2ccc3c(N)ncnn23)[C@H](OC(C)=O)[C@@H]1OC(C)=O [compound 7],"liver S9 stability, dog",[23],<2/<2/<2/<2 min
same,"liver S9 stability, rat",[24],<2/<2/<2/<2 min
same,"liver S9 stability, cynomolgus monkey",[25],<2/<2/<2/<2 min
same,"liver S9 stability, human",[26],<2/<2/<2/<2 min
